How the values were obtained:
[1] = xn = mol fraction of the nth substance listed; conditions: 101 kPa, Liquid; for speed of sound: Sing-around technique in a fixed-path interferometer; for mass density: Vibrating tube method
[2] = excess molar enthalpy (molar enthalpy of mixing); xn = mol fraction of the nth substance listed; conditions: 308.15 K, 101 kPa, Liquid, two-drop calorimeter

Cc1ccccc1N [2-methylaniline] + c1ccncc1
[1]
Conditions	mass density, 298.15 K [kg/m3]	mass density, 303.15 K [kg/m3]	mass density, 308.15 K [kg/m3]	speed of sound, 298.15 K [m/s]	speed of sound, 303.15 K [m/s]	speed of sound, 308.15 K [m/s]
x1 = 0.0652	980.854	975.904	970.897	1431.7	1411.5	1391.8
x1 = 0.1138	982.607	977.714	972.767	1442.1	1421.8	1402.4
x1 = 0.1277	–	978.889	–	–	–	–
x1 = 0.1477	983.731	–	973.991	1449.2	1429	1409.8
x1 = 0.1853	984.895	980.111	975.253	1457	1436.9	1417.8
x1 = 0.2374	986.375	981.65	976.858	1467.7	1447.7	1428.6
x1 = 0.2686	987.172	982.485	977.748	1474	1454	1435
x1 = 0.3005	987.937	983.289	978.587	1480.3	1460.4	1441.4
x1 = 0.3526	989.058	984.461	979.835	1490.5	1470.6	1451.7
x1 = 0.4104	990.119	985.592	981.051	1501.4	1481.7	1462.7
x1 = 0.4837	991.237	986.789	982.322	1514.8	1495.3	1476.3
x1 = 0.5238	991.751	987.335	982.917	1522	1502.6	1483.6
x1 = 0.5641	992.187	987.803	983.434	1529.1	1509.6	1490.6
x1 = 0.6231	992.73	988.386	984.067	1539.3	1519.7	1500.7
x1 = 0.6974	993.253	988.955	984.698	1551.7	1531.8	1513.1
x1 = 0.7678	993.622	989.362	985.142	1563.4	1542.9	1524.3
x1 = 0.8236	993.838	989.613	985.416	1572.5	1551.6	1532.9
x1 = 0.8622	993.969	989.756	985.573	1578.9	1557.4	1538.6
x1 = 0.9621	994.245	990.097	985.933	1595.9	1572.2	1553.2

[2]
Conditions	excess molar enthalpy [kcal/mol]
x1 = 0.0397	-0.052
x1 = 0.0728	-0.0894
x1 = 0.1263	-0.137
x1 = 0.1742	-0.171
x1 = 0.2163	-0.192
x1 = 0.2681	-0.213
x1 = 0.3192	-0.23
x1 = 0.3707	-0.24
x1 = 0.4212	-0.245
x1 = 0.4826	-0.247
x1 = 0.5261	-0.245
x1 = 0.5815	-0.241
x1 = 0.6327	-0.23
x1 = 0.7026	-0.213
x1 = 0.7735	-0.187
x1 = 0.8177	-0.165
x1 = 0.8802	-0.123
x1 = 0.9723	-0.0346

From the NIST ThermoML archive (doi:10.1016/j.jct.2010.12.028)
